Assay results as given in patent US20260325655A1, “DECREASING THE INTRINSICALLY DISORDERED PROTEIN ALPHA-SYNUCLEIN’S LEVELS BY TARGETING ITS STRUCTURED MRNA WITH A RIBONUCLEASE TARGETING CHIMERA” (University of Florida Research Foundation, Incorporated, priority 2023, published 2026).

Assays:
fully base paired RNA = assay: MST binding to fully base paired control RNA; settings: microscale thermophoresis
Protocol: (§1) Binding Affinity Measurements: Microscale Thermophoresis (MST). Binding affinity measurements were performed on a Monolith NT.115 MST system (NanoTemper Technologies) with Cy5-labeled oligonucleotides. Briefly, Cy5-labeled RNA (5 nM) was prepared in 1× Folding Buffer and folded by heating at 60° C. for 5 min and then slowly cooling to room temperature. After cooling, Tween-20 was added to a final concentration of 0.1% (v/v). Compound solutions were prepared separately in 30 μL of 1× Assay Buffer at a final concentration of 5 μM (1% (v/v) DMSO), followed by 1:1 serial dilutions in 1× Assay Buffer. RNA and compound solutions were then mixed 1:1 by volume.
(§2) Samples were incubated for 20 min at room temperature and then loaded into premium capillaries (NanoTemper Technologies, Cat #MO-K025). The following parameters were used for MST measurement: 5-20% LED power (adjusted to keep fluorescence intensity between 8000 and 18000), 80% MST power, Laser-On time=30 s, and Laser-Off time=5 s. The resulting data were analyzed by calculating the change in thermophoresis as a function of compound concentration and fitted by Equation (3) in MST analysis software (NanoTemper Technologies) to yield the dissociation constant (Kd):
(§3) where F is the concentration of fluorescently labeled RNA; unbound and bound refer to the thermophoresis signal at completely unbound and bound state of RNA, respectively; c is the concentration of the compound; f (c) is the thermophoresis signal at compound concentration of c; Kd is the dissociation constant.

RNase L = settings: regioisomer recruiter module of Syn-CTRL vs active recruiter (ref 48); cited from earlier work
[1] = tested on: SNCA IRE-luciferase transcript; assay: SNCA IRE-luciferase transcript abundance by RT-qPCR; type: cell-based, human
Protocol: RNA extraction and reverse transcription-quantitative polymerase chain reaction (RT-qPCR). Total RNA was extracted from cells using a Quick-RNA MiniPrep Kit (Zymo Research) per the manufacturer's protocol including DNase treatment. For each sample, 200 ng of RNA was reverse transcribed into cDNA by using a qScript cDNA Synthesis Kit (QuantaBio) according to the manufacturer's instructions. To assess the relative mRNA levels, RT-qPCR was performed in triplicate using SYBR Green PCR mater mix (Applied Biosystems) with a Quant Studio 5 Real-Time PCR system. The relative levels of mRNA were calculated by using the ΔΔCt method as previously described.^8
(§4) Plasmid constructs and establishment of reporter gene overexpressing cells. Construction of pIRES-Luc-EGFP-puro plasmid and pCDH-α-syn-5′-UTR-Luc-EGFP-puro plasmid used in 5′ UTR-luciferase-based selectivity assay were previously described.^4 Briefly, In-Fusion PCR cloning system (Takara Bio, Mountain View, CA, USA) was used for all plasmid constructions per the manufacturer's instructions. To ensure sequence accuracy, all plasmids generated in this study were confirmed by sequencing.

SNCA-UTR-Luciferase = assay: SNCA-UTR luciferase reporter assay; type: cell-based, human; settings: highest concentration tested
From the text: as §4
(§5) Luciferase assay. The effect of compounds on translation of SNCA IRE-containing transcript was measured by using a luciferase reporter assay. HeLa cells (~60% confluency) were transfected with plasmids (2 μg per 60 mm dish) by using JetPrime (Polyplus Transfection) according to the manufacturer's recommended procedures. Approximately 16 h after transfection, the transfection cocktail was removed, and the cells were trypsinized and seeded to 96-well plates (8,000 cells per well). After 6 h, cells were treated as described in Cell Culture. To measure the luciferase signals, the cells were then washed with 1× DPBS, and luciferase activity in each well was measured by using the ONE-Glo Luciferase Assay System (Promega) per the manufacturer's instructions. Luminescence from firefly luciferase reaction was measured using a Biomek FLx800 plate reader.

SNCA IRE = assay: MST binding affinity for SNCA IRE (A bulge model RNA); settings: microscale thermophoresis; Cy5-labeled RNA
Protocol: as §1, §2, §3

[2] = tested on: control luciferase reporter lacking an IRE; assay: control luciferase reporter lacking an IRE; type: cell-based, human; settings: reporter lacks IRE / SNCA-UTR sequence
From the text: as §4, §5

What does the source list for `CCOC(=O)C1=C(Nc2ccccc2)S/C(=C\c2ccc(O)c(OCCOCCOCCOCCNC(=O)CCCOc3ccc(-n4c(SCC(=O)Nc5ccc6cn[nH]c6c5)nnc4-c4ccncc4)cc3)c2)C1=O` [Syn-CTRL]?
binding towards the fully base paired RNA (fully base paired RNA): no saturable binding; loss of activity of the RNase L-recruiting module in inducing RNase L cleavage (RNase L): ~ 20 -fold less active; effect on SNCA IRE-luciferase transcript levels (in words) [1]: no effect; decrease of luminescence signal (in words) (SNCA-UTR-Luciferase): modest decrease; Kd (SNCA IRE): 97 ± 3 nM; inhibition in the control luciferase reporter [2]: Neither compound showed inhibition
